Experimental data as given in PMC3197222 (Journal of the American Chemical Society, 2009).
“Also recorded” adds a separate entry of the source.

How the values were obtained:
DNase [1] = assay: Phage-based ELISA of phage-displayed DNase ligands; format: binding; conditions: for binding to DNase, unwrapped phage-displayed ligand: absence of 1-ext wrapper, versus M13-KO7 phage; for binding affinity and specificity for DNase, phage-displayed: phage-based ELISA (Figure 5); for binding to DNase, wrapped phage-displayed ligand: wrapped with 1-ext (2.5 µM), versus M13-KO7 phage control
DNase [2] = conditions: selected with Lys18-wrapped phage library; ref [15]; cited from earlier work
DNase [3] = assay: SPR imaging of phage-displayed DNase-1 adsorption; format: binding; conditions: phage-displayed DNase-1, 2.5 nM phage wrapped in 2.5 µM polymer 1 in PBS (Figure S2)

## EEWYCLRQGTFETLFF [DNase-2]
DNase [1]
  binding to DNase, unwrapped phage-displayed ligand: stronger binding to DNase than the negative control M13-KO7 phage
  binding affinity and specificity for DNase, phage-displayed: moderate to high affinity binding and specificity for DNase
  binding to DNase, wrapped phage-displayed ligand: bound with higher affinity to DNase than the M13-KO7 phage control, with DNase-2 having much greater apparent affinity; also recorded: strong binding to DNase was retained

## EEWYCLRQGTFETLYCFW [DNase-L]
DNase [2]
  DNase ligand (previous report): DNase ligand

## RWCLSELSG [DNase-1]
DNase [3]
  SPR imaging binding to DNase: binds well to the target DNase
DNase [1]
  binding to DNase, unwrapped phage-displayed ligand: stronger binding to DNase than the negative control M13-KO7 phage
  binding affinity and specificity for DNase, phage-displayed: moderate to high affinity binding and specificity for DNase
  binding to DNase, wrapped phage-displayed ligand: bound with higher affinity to DNase than the M13-KO7 phage control
